Assay results taken from ChEMBL document CHEMBL5321293, “Discovery of ERD-3111 as a Potent and Orally Efficacious Estrogen Receptor PROTAC Degrader with Strong Antitumor Activity” (J Med Chem, 2023).
Values belong to the molecule of their own block, whether it stands above or below them. Calls of active or inactive are those of the source. No cut-off for these calls is given here.

Columns and labels:
[1] = biological target: T1, Protein cereblon/Estrogen receptor (Homo sapiens, UniProt P03372+Q96SW2); assay: Protac activity at human ERalpha in human MCF7 cells assessed as protein degradation incubated for 12 hrs by ICW blot assay; type: cell-based
Target sequence in this assay (P03372 whole entry): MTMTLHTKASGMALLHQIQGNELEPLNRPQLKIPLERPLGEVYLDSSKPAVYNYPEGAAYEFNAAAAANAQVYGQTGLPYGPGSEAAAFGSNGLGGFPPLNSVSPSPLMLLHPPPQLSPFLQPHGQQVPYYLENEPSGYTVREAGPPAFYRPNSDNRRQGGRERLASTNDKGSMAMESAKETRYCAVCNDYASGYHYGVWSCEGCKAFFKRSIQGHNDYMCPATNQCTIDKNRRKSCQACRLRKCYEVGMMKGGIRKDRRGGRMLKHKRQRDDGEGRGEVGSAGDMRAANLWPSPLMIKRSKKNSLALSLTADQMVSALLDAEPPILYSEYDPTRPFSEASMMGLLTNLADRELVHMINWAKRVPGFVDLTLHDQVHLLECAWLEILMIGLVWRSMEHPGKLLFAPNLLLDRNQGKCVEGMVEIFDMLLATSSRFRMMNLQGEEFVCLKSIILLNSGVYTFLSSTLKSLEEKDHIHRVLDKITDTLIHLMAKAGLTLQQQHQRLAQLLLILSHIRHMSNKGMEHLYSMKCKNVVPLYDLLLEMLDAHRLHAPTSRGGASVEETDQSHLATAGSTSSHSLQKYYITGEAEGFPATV
Target sequence in this assay (Q96SW2 whole entry): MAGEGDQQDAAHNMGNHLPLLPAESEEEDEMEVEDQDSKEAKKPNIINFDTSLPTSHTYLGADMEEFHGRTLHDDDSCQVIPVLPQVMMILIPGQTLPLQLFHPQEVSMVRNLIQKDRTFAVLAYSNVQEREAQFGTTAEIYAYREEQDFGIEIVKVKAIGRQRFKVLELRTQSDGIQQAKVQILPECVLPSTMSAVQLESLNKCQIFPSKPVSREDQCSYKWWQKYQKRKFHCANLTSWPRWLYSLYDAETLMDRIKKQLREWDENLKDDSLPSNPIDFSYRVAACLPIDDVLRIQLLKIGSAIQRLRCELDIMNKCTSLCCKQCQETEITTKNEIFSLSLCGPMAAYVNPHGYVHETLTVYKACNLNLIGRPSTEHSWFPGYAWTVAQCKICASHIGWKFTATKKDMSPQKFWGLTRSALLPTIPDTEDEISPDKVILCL

[2] = biological target: T1, Protein cereblon/Estrogen receptor; assay: Protac activity at human ERalpha in human MCF7 cells assessed as induction of ERalpha degradation by measuring maximum efficacy at 1 uM incubated for 12 hrs by ICW blot assay relative to control; type: cell-based
Target sequence in this assay (P03372 whole entry, looked up): as the sequence (P03372 whole entry) above
Target sequence in this assay (Q96SW2 whole entry, looked up): as the sequence (Q96SW2 whole entry) above

[3] = AUC in Sprague-Dawley rat at 3 mg/kg, po and measured upto 24 hrs by LC-MS/MS analysis; type: ADME, organism-based; design: dose 3 mg/kg, time < 24 hrs, route po; conditions: in vivo
in vivo [4] = conditions: Sprague-Dawley, rat, po, 3 mg/kg
[5] = Volume of distribution at steady state in Sprague-Dawley rat at 1 mg/kg, iv and measured upto 24 hrs by LC-MS/MS analysis; conditions: in vivo
[6] = rat, in vivo, po, 3 mg/kg, 24 h
[7] = Half life in Sprague-Dawley rat at 3 mg/kg, po and measured upto 24 hrs by LC-MS/MS analysis; conditions: in vivo
[8] = Plasma concentration in Sprague-Dawley rat at 3 mg/kg,po and mesured after 24 hrs by LC-MS/MS analysis; type: ADME, organism-based
[9] = Plasma concentration in Sprague-Dawley rat at 3 mg/kg,po and mesured after 3 hrs by LC-MS/MS analysis; type: ADME, organism-based
[10] = Plasma concentration in Sprague-Dawley rat at 3 mg/kg,po and mesured after 1 hrs by LC-MS/MS analysis; type: ADME, organism-based
[11] = Plasma concentration in Sprague-Dawley rat at 3 mg/kg,po and mesured after 6 hrs by LC-MS/MS analysis; type: ADME, organism-based
[12] = Downregulation of ERalpha protein expression in tumor of CB17 SCID mouse xenografted with human MCF7 cells harboring wild type ESR1 at 30 mg/kg, po qd for 3 days and measured after 24 hrs last dose by Western blot analysis relative to control; type: functional; conditions: time 3 day
[13] = Downregulation of ERalpha protein expression in tumor of CB17 SCID mouse xenografted with human MCF7 cells harboring wild type ESR1 at 30 mg/kg, po qd for 3 days and measured after 3 hrs last dose by Western blot analysis relative to control; type: functional; conditions: time 3 day
MCF7 [14] = assay: Antitumor activity against human MCF7 cells harboring ESR1 D538G mutant xenografted in CB17 SCID mouse assessed as tumor growth inhibition at 30 mg/kg, po qd for 4 weeks; type: functional; conditions: MCF7, 672 h, read-out: TGI
[15] = Toxicity in CB17 SCID mouse xenografted with human MCF7 cells harboring wild type ESR1 assessed as body weight change at 10 mg/kg,po qd for 5 weeks; type: organism-based; conditions: in vivo, 840 h
[16] = Toxicity in CB17 SCID mouse xenografted with human MCF7 cells harboring ESR1 D538G mutant assessed as body weight change at 30 mg/kg,po qd for 4 weeks; type: organism-based; conditions: in vivo, 672 h
MCF7 [17] = assay: Antitumor activity against human MCF7 cells harboring wild type ESR1 xenografted in CB17 SCID mouse assessed as tumor growth inhibition at 10 mg/kg, po qd for 5 weeks; type: functional; conditions: MCF7, 840 h, read-out: TGI
MCF7 [18] = assay: Antitumor activity against human MCF7 cells harboring ESR1 D538G mutant xenografted in CB17 SCID mouse assessed as tumor growth inhibition at 30 mg/kg, po qd for 4 weeks and measured 1 week post last dose; type: functional, organism-based
MCF7 [19] = assay: Antitumor activity against human MCF7 cells harboring ESR1 Y537S mutant xenografted in CB17 SCID mouse assessed as tumor growth inhibition at 30 mg/kg, po qd for 4 weeks; type: functional
MCF7 [20] = assay: Antitumor activity against human MCF7 cells harboring ESR1 Y537S mutant xenografted in CB17 SCID mouse assessed as tumor growth inhibition at 30 mg/kg, po qd for 4 weeks and measured 30 days post last dose; type: functional
[21] = Toxicity in CB17 SCID mouse xenografted with human MCF7 cells harboring ESR1 Y537S mutant assessed as body weight change at 30 mg/kg,po qd for 4 weeks; type: organism-based; conditions: in vivo, 672 h
[22] = Downregulation of ERalpha protein expression in tumor of CB17 SCID mouse xenografted with human MCF7 cells harboring ESR1 Y537S mutant at 30 mg/kg, po qd for 3 days and measured after 6 hrs last dose by Western blot analysis relative to control; type: functional; conditions: time 3 day
[23] = Plasma concentration in Sprague-Dawley rat at 5 mg/kg,po and mesured after 3 hrs by LC-MS/MS analysis; type: ADME, organism-based
[24] = Plasma concentration in Sprague-Dawley rat at 5 mg/kg,po and mesured after 1 hrs by LC-MS/MS analysis; type: ADME, organism-based
[25] = Plasma concentration in Sprague-Dawley rat at 5 mg/kg,po and mesured after 6 hrs by LC-MS/MS analysis; type: ADME, organism-based
in vivo [26] = conditions: Sprague-Dawley, rat, po, 3 mg/kg; remark: listed apart in the source
[27] = Plasma protein binding in monkey; type: ADME, cell-free, Macaca mulatta; conditions: rhesus monkey, read-out: PPB (converted)
[28] = Plasma protein binding in mouse; type: ADME, cell-free; conditions: read-out: PPB (converted)
[29] = Clearance in Sprague-Dawley rat at 1 mg/kg, iv and measured upto 24 hrs by LC-MS/MS analysis; conditions: in vivo
[30] = Plasma protein binding in human; type: ADME, cell-free; conditions: read-out: PPB (converted)
[31] = Plasma protein binding in rat; type: ADME, cell-free; conditions: read-out: PPB (converted)
[32] = Plasma protein binding in dog; type: ADME, cell-free, Canis lupus familiaris; conditions: read-out: PPB (converted)

Structure (SMILES): O=C1CC[C@H](N2Cc3cc(N4CCN(CC5CCN(c6ccc([C@@H]7c8ccc(O)cc8CC[C@@H]7c7ccccc7)cc6)CC5)CC4)ccc3C2=O)C(=O)N1 [VEPDEGESTRANT]
Activity [12]: 78%
Activity [13]: 83%
inhibition in vivo at 30 mg/kg (MCF7 [14]): 47%
Activity [15]: Non-Toxic
Activity [16]: Non-Toxic
inhibition in vivo at 10 mg/kg (MCF7 [17]): 87%
Activity (MCF7 [18]): Active
Activity (MCF7 [19]): Active
Activity (MCF7 [20]): Active
Activity [21]: Non-Toxic
Activity [22]: 77%

Structure (SMILES): C[C@@H]1Cc2c([nH]c3ccccc23)[C@@H](c2c(F)cc(N3CCC4(CCN(C(=O)CN5Cc6cc7c(cc6C5)C(=O)N(C5CCC(=O)NC5=O)C7=O)CC4)CC3)cc2F)N1CC(F)F (stereo not given in full)
DC50 [1]: 0.8 nM
Emax [2]: 106%
concentration at 3 h [23]: 14 ng/mL
concentration at 1 h [24]: 8.3 ng/mL
concentration at 6 h [25]: 10.3 ng/mL

Structure (SMILES): CN1Cc2cc3c(cc2C1)C(=O)N(C1CCC(=O)NC1=O)C3=O (stereo not given)
bioavailability at 24 h (in vivo [26]): 70%
fraction unbound [27]: 0.856
AUC at 24 h ([3]; Sprague-Dawley): 1150 ng·h/mL
fraction unbound [28]: 0.737
clearance at 24 h [29]: 29.2 mL/min/kg
Cmax at 24 h (in vivo [4]): 228 ng/mL
fraction unbound [30]: 0.875
Vd at 24 h [5]: 5 L/kg
fraction unbound [31]: 0.635
fraction unbound [32]: 0.83
half-life at 24 h [7]: 1.8 h

The remaining lines, values ahead:

DC50 [1]: 4.3 nM
Emax [2]: 79%
AUC ([3]; 24 h): 399 ng·h/mL
Cmax at 24 h (in vivo [4]): 24.9 ng/mL
Vd at 24 h [5]: 55.4 L/kg
F [6]: 36%
half-life at 24 h [7]: 16 h
Structure (SMILES): O=C1CCC(N2C(=O)c3cc4c(cc3C2=O)CN(CC2CCN(CC3CCN(c5ccc([C@@H]6c7ccc(O)cc7CC[C@@H]6c6ccccc6)cc5)CC3)CC2)C4)C(=O)N1 (stereo not given in full)

DC50 [1]: 0.8 nM
Emax [2]: 83%
concentration at 24 h [8]: 4 ng/mL
concentration at 3 h [9]: 8.2 ng/mL
concentration at 1 h [10]: 7.9 ng/mL
concentration at 6 h [11]: 8.3 ng/mL
Structure (SMILES): C[C@@H]1Cc2c([nH]c3ccccc23)[C@@H](c2c(F)cc(N3CCC4(CCN(C(=O)CN5Cc6cc7c(cc6C5)C(=O)N(C5CCC(=O)NC5=O)C7=O)CC4)CC3)cc2F)N1CC(C)(C)F (stereo not given in full)
